Literature values in US20100168247A1, “SOLID COMPOSITES OF A CALCIUM RECEPTOR-ACTIVE COMPOUND” (TEVA PHARMACEUTICAL INDUSTRIES LTD., priority 2006, published 2010).

solubility (pH 1): about 0.1 mg/ml
solubility in water (pH 7): less than 1 μg/ml
Compound: C[C@@H](NCCCc1cccc(C(F)(F)F)c1)c1cccc2ccccc12.Cl [cinacalcet, (R)—N-[1-(1-naphthyl)ethyl]-3-[3-(trifluoromethyl)phenyl]propan-1-amine hydrochloride]
